Measured values published in patent publication US20100104546A1, “MODULATORS OF ANTIGEN-DEPENDENT T CELL PROLIFERATION” (CHILDREN, YOUTH AND WOMEN'S HEALTH SERVICE, priority 2007, published 2010).

What was measured:
Th1 and Th2 cytokines = assay: Cytokine levels of mitogen-stimulated splenocytes, ex vivo; type: in vivo, mice; details: 3 days
Description: Mice were sensitized with SRBC and after 5 days were injected with β-oxa-21:3n-3 or vehicle intraperitoneally. After 2 h spleens were removed, cell suspensions prepared and incubated in the presence of mitogens PHA/PMA or PMA/A23187. After 3 days of incubation, the culture fluids and were harvested and used to determine the levels of Th1 and Th2 cytokines. Baseline subtracted levels of cytokines plotted in the presence of vehicle or β-oxa-21:3n-3. The values represent the mean±SEM separate experiments each conducted in quintuplets.
6-7 weeks old Balb/c mice were injected subcutaneously with 100 μl of 10% sheep red blood cells (IMVS, Inc., Adelaide, Australia) After 5 days 100 ul of β-oxa-21:3n-3 at indicated amounts were injected intraperitoneally, intravenously or gavaged orally. In another experimental set up mice were given β-tha-21:3n-3 i.p. In a third approach mice were infected subcutaneously with 100 μl of Tetanus Toxoid (2,500 Lf/ml). Then 7 days later were given β-oxa-21:3n-3. At indicated time points mice were sacrificed and spleens were removed. Single cell suspensions were prepared and white blood cells (WBC) were enriched by passing through Ficoll-Paque Plus (GE Healthcare). Cells were washed with RPMI-1640 containing 10% fetal bovine serum, 10 mM Hepes, antibiotics and glutamine (RPMI-10) and counted using an automated Cell-Dyne 3500R (Abbott, Inc. MA) instrument. Cells were viable (>98%) as judged by trypan blue exclusion. (β-oxa-21:3n-3)- or vehicle-treated mouse samples (200,000/well) were mixed either with SRBC (600,000/well) with 100 μl of Tetanus toxoid (50 Lf/ml) or phytohaemaglutinin (PHA) (2 μg/ml) or with PHA plus phorbol myristate acetate (PMA) (10 ng/ml) or with PMA plus calcium ionophore A23187 ([…]). Cells were cultured in 96 well U bottom plates (Nunc, Inc. Denmark) for 3 days (except for TT −5 days) at 37° C. under humidified air containing 5% CO2. At some instances 50 μl of supernatants were transferred to a new plate and frozen immediately at −70° C. to be used for cytokine measurements. Thymidine (50 μl, 1 μCi/well) was added at final 16 hours of culture. Cells were harvested and thymidine incorporation was determined using a beta scintillation counter.
To determine whether or not these effects were due to non-specific suppression of the immune system, we examined the production of Th1 and Th2 cytokines in mitogen-activated mononuclear leukocytes. Splenocytes from (β-oxa-21:3n-3)- or vehicle-administered pre-immune animals were cultured for 3 days in the presence of PHA-PMA or PMA-A23187. The cell culture fluids were collected and cytokines measured.

[1] = system: circulating cytokine levels; assay: Circulating cytokine levels in SRBC-sensitized mice after intravenous SRBC challenge; type: in vivo; details: serum, 80 mg/kg IP, 6 h after IV SRBC; ELISA

CC/C=C\C/C=C\C/C=C\CCCCCCCCOCC(=O)O [β-oxa-21:3n-3] was tested, and the IL-2 secretion (Th1 and Th2 cytokines; PHA-PMA-stimulated splenocytes) was “higher levels”, the “levels of IL-4, IL-5, TNFα and IFNγ” value (Th1 and Th2 cytokines; PHA-PMA-stimulated splenocytes) was “no substantial increase” and the IFNγ secretion (Th1 and Th2 cytokines; PMA-A23187-stimulated splenocytes) was “reduction”. For the same molecule, the cytokine secretion (Th1 and Th2 cytokines; PMA-A23187-stimulated splenocytes, apart from IFNγ) was “did not result in any substantial differences” and the TGFβ conc [1] was “(52 ± 6) × 10^3 pg/ml”.
